Experimental data reported in patent US20260256827A1, “Methods for treating lower back pain with hyaluronic acid” (priority 2023, published 2026).

Assays:
Assay type in all cases: in vivo, human
[1] = test system: chronic, bilateral lower back pain; assay: Example 2: HA injections, patient, pain severity on visual analog numerical rating scale; details: 75 mg bid from Nov. 9, 2023; recurrence reported Jan. 8, 2024
Experimental: (§1) In the Examples, unless otherwise specified, pain severity was assessed using a visual analog numerical rating scale ranging from 0 (no pain) to 10 (worst pain possible), and hyaluronic acid (HA) injections (Hyalgan™, 10 mg/mL, MW: 500,000 to 730,000 Daltons in 2 mL pre-filled syringes) were administered using a 30 gauge, ½″ needle.
On Oct. 5, 2023, a patient reported chronic, bilateral lower back pain, and more recent onset of pain in their feet that slowly spread to their lower leg, but mostly resides on the plantar surface of their feet. The lower back pain severity was 7/10 (between severe and very severe) at rest, and up to 9/10 (between very severe and worse pain possible) after standing all day.
On Oct. […] The injection locations were determined by findings of focal tenderness of the palpated sites illustrated in FIG. 1.
On Oct. 12, 2023, patient reported maximum lower back pain severity of 5-6/10 (severe). […] These injection locations were again determined by findings of focal tenderness of palpated sites illustrated in FIG. 1.
On Jan. […] These injection locations were again determined by findings of focal tenderness of palpated sites illustrated in FIG. 1.
On Mar. […] These injection locations were again determined by findings of focal tenderness of palpated sites illustrated in FIG. 1.

[2] = test system: peripheral neuropathy foot pain; assay: Example 2 patient: treatment of peripheral neuropathy / foot pain; details: 75 mg bid from Nov. 9, 2023
Experimental: Beginning on Oct. 2, 2023, the patient was treated for peripheral neuropathy lidocaine/prilocaine 2.5% cream applied to their feet bilaterally. […] 8, 2024.

chronic low back pain = assay: Example 4: Hyalgan injections, person, pain severity; details: before Hyalgan
Experimental: as §1
Hyaluronic acid injections were administered in the form of Hyalgan ([…]) along the lateral margin of the left PSIS (two injections; 1 mL each). […] […] received subsequent injections on this visit: again two injections of 1 mL each along the lateral margins of […] left PSIS.

[3] = test system: chronic lower back pain with enthesopathy; assay: Example 3: HA injections, patient, pain severity on visual analog numerical rating scale; details: tramadol and cyclobenzaprine together, before HA
Experimental: as §1

What does the source list for CC(C)C[C@H](CN)CC(=O)O [pregabalin]?
effect on recurrence of lower back pain [1]: did not prevent the recurrence; effect on foot pain [2]: helpful

How did the “benefit of prior treatment for low back pain” value (chronic low back pain) turn out when CC(C)Cc1ccc(C(C)C(=O)O)cc1 (stereo not drawn) [ibuprofen] was run?
Its value is “without benefit”.

For COc1cccc(C2(O)CCCCC2CN(C)C)c1 (stereo not drawn) [tramadol], which “benefit of ongoing treatment for lower back pain” value [3] is on record?
The value was “helped only marginally”.

Which results are given for CN(C)CCC=C1c2ccccc2C=Cc2ccccc21 [cyclobenzaprine]?
benefit of ongoing treatment for lower back pain [3]: helped only marginally; benefit of prior treatment for low back pain (chronic low back pain): without benefit
